Where only a bound is given, the exact number is not on record here.

The target in this experiment is Casein kinase II subunit alpha/beta (Homo sapiens, UniProt P68400). The experiment in a line: In Vitro Kinase Assay. To be noted: pH 7.5; 30 °C. Here is the method: Each test was performed twice in a total reaction volume of 30 μL, containing 6 μg of peptide substrate RRRDDDSDDD (New England Biolabs (UK) Ltd., Herts, UK); 10 units of recombinant human CK2 holoenzyme (New England Biolabs); 50 μM ATP and γ-labeled 32P ATP, diluted to specific activity 100 μCi/mM; CK2 buffer (20mM Tris-HCl, pH 7.5; 50mM KCl; 10mM MgCl2) and inhibitor in varying concentrations. Incubation time was 20 min at 30 °C. The reaction was stopped by adding an equal volume of 10% o-phosphoric acid and the reaction mixture was loaded onto 20-mm discs of phosphocellulose paper (Whatman plc, Kent, UK). Discs were washed three times with 1% o-phosphoric acid solution, air-dried at room temperature, and counted by the Cherenkov method in a beta-counter (LKB). As negative control an equal volume of DMSO was added to the reaction mixture. Quercetin, a known CK2 inhibitor, was used as an inhibition positive control. The final concentration of quercetin was 0.55 μM (which inhibited CK2 activity by 50%).
The term IC50 denotes the concentration that gives 50% inhibition. Read a low IC50 as greater potency in that assay. `CC1(C)CS(=O)(=O)N(c2ccc(C(=O)Nc3cccc(C(=O)O)c3)cc2)C1=O` [3-{[4-(4,4-dimethyl-1,1-dioxido-3-oxoisothiazolidin-2-yl)benzoyl]amino}benzoic acid (28)] yielded an IC50 of 8 µM.
`O=C(O)c1cc(NC(=O)c2ccc(N3C(=O)CCS3(=O)=O)cc2Cl)ccc1O` [5-{[2-chloro-4-(1,1-dioxido-3-oxoisothiazolidin-2-yl)benzoyl]amino}-2-hydroxybenzoic acid (32)] gave an IC50 of 9 µM.
With `CC1CS(=O)(=O)N(c2ccc(C(=O)Nc3ccc(O)c(C(=O)O)c3)cc2)C1=O` (configuration not stated) [2-hydroxy-5-{[4-(4-methyl-1,1-dioxido-3-oxoisothiazolidin-2-yl)benzoyl]amino}benzoic acid (25)], the IC50 was more than 30 µM.
Turning to `CC1CS(=O)(=O)N(c2ccc(C(=O)Nc3ccc(C(=O)O)c(O)c3)c(Cl)c2)C1=O` (configuration not stated) [4-{[2-chloro-4-(4-methyl-1,1-dioxido-3-oxoisothiazolidin-2-yl)benzoyl]amino}-2-hydroxybenzoic acid (38)], 3.5 µM corresponded to half-maximal inhibition (IC50).
The result for `CC1CS(=O)(=O)N(c2ccc(C(=O)Nc3cccc(C(=O)O)c3)c(Cl)c2)C1=O` (configuration not stated) [3-{[2-chloro-4-(4-methyl-1,1-dioxido-3-oxoisothiazolidin-2-yl)benzoyl]amino}benzoic acid (35)] reads 3.6 µM; that for `CC1CS(=O)(=O)N(c2ccc(C(=O)Nc3ccc(O)c(C(=O)O)c3)c(Cl)c2)C1=O` (configuration not stated) [5-{[2-chloro-4-(4-methyl-1,1-dioxido-3-oxoisothiazolidin-2-yl)benzoyl]amino}-2-hydroxybenzoic acid (36)], 6 µM; that for `O=C(Nc1ccc(O)c(C(=O)O)c1)c1ccc(N2C(=O)CCS2(=O)=O)cc1` [5-{[4-(1,1-dioxido-3-oxoisothiazolidin-2-yl)benzoyl]amino}-2-hydroxybenzoic acid (22)], 8 µM.
In the case of `CC1CS(=O)(=O)N(c2ccc(C(=O)Nc3cc(C(=O)O)ccc3O)cc2)C1=O` (configuration not stated) [4-hydroxy-3-{[4-(4-methyl-1,1-dioxido-3-oxoisothiazolidin-2-yl)benzoyl]amino}benzoic acid (26)], half-maximal inhibition (IC50) was put at 16 µM.
Molecule `COC(=O)c1cc(NC(=O)c2ccc(N3C(=O)C(C)CS3(=O)=O)cc2Cl)ccc1O` (configuration not stated) [Methyl 5-{[2-chloro-4-(4-methyl-1,1-dioxido-3-oxoisothiazolidin-2-yl)benzoyl]amino}-2-hydroxybenzoate (39)] gave an IC50 of more than 30 µM.
`CC1CS(=O)(=O)N(c2ccc(C(=O)Nc3cc(C(=O)O)ccc3O)c(Cl)c2)C1=O` (configuration not stated) [3-{[2-chloro-4-(4-methyl-1,1-dioxido-3-oxoisothiazolidin-2-yl)benzoyl]amino}-4-hydroxybenzoic acid (37)]: the midpoint of inhibition, the IC50, lay at 3.7 µM.
`O=C(O)c1ccc(NC(=O)c2ccc(N3C(=O)CCS3(=O)=O)cc2Cl)cc1` [4-{[2-chloro-4-(1,1-dioxido-3-oxoisothiazolidin-2-yl)benzoyl]amino}benzoic acid (34)]: the IC50 is more than 30 µM.
In turn, `CC1CS(=O)(=O)N(c2ccc(C(=O)NCC(=O)O)cc2)C1=O` (configuration not stated) [N-[4-(4-methyl-1,1-dioxido-3-oxoisothiazolidin-2-yl)benzoyl]glycine (40)] returned an IC50 of more than 30 µM.
`O=C(O)c1cccc(NC(=O)c2ccc(N3C(=O)CCS3(=O)=O)cc2)c1` [3-{[4-(1,1-dioxido-3-oxoisothiazolidin-2-yl)benzoyl]amino}benzoic acid (21)]: the IC50 came out at 1.8 µM.
Consider `CC1(C)CS(=O)(=O)N(c2ccc(C(=O)Nc3ccc(C(=O)O)c(O)c3)cc2)C1=O` [4-{[4-(4,4-dimethyl-1,1-dioxido-3-oxoisothiazolidin-2-yl)benzoyl]amino}-2-hydroxybenzoic acid (30)], for which the 50% inhibitory concentration (IC50) is more than 30 µM.
Regarding `CC1CS(=O)(=O)N(c2ccc(C(=O)NCCCC(=O)O)cc2)C1=O` (configuration not stated) [4-{[4-(4-methyl-1,1-dioxido-3-oxoisothiazolidin-2-yl)benzoyl]amino}butanoic acid (42)], the IC50 is more than 30 µM.
The result for `CC1CS(=O)(=O)N(c2ccc(C(=O)Nc3cccc(C(=O)O)c3)cc2)C1=O` (configuration not stated) [3-{[4-(4-methyl-1,1-dioxido-3-oxoisothiazolidin-2-yl)benzoyl]amino}benzoic acid (24)] reads 3.1 µM; that for `O=C(Nc1ccc(C(=O)O)c(O)c1)c1ccc(N2C(=O)CCS2(=O)=O)cc1` [4-{[4-(1,1-dioxido-3-oxoisothiazolidin-2-yl)benzoyl]amino}-2-hydroxybenzoic acid (23)], 14 µM.
`CC1CS(=O)(=O)N(c2ccc(C(=O)Nc3ccc(C(=O)O)c(O)c3)cc2)C1=O` (configuration not stated) [2-hydroxy-4-{[4-(4-methyl-1,1-dioxido-3-oxoisothiazolidin-2-yl)benzoyl]amino}benzoic acid (27)] gave an IC50 of 19.5 µM.
`CC1CS(=O)(=O)N(c2ccc(C(=O)NCCC(=O)O)cc2)C1=O` (configuration not stated) [N-[4-(4-methyl-1,1-dioxido-3-oxoisothiazolidin-2-yl)benzoyl]-b-alanine (41)] yielded an IC50 of more than 30 µM.
`CC1(C)CS(=O)(=O)N(c2ccc(C(=O)Nc3ccc(O)c(C(=O)O)c3)cc2)C1=O` [5-{[4-(4,4-dimethyl-1,1-dioxido-3-oxoisothiazolidin-2-yl)benzoyl]amino}-2-hydroxybenzoic acid (29)] returned an IC50 of more than 30 µM.
In turn, `O=C(O)c1cccc(NC(=O)c2ccc(N3C(=O)CCS3(=O)=O)cc2Cl)c1` [3-{[2-chloro-4-(1,1-dioxido-3-oxoisothiazolidin-2-yl)benzoyl]amino}benzoic acid (31)] showed an IC50 of 1.5 µM.
With `O=C(O)c1ccc(NC(=O)c2ccc(N3C(=O)CCS3(=O)=O)cc2Cl)cc1O` [4-{[2-chloro-4-(1,1-dioxido-3-oxoisothiazolidin-2-yl)benzoyl]amino}-2-hydroxybenzoic acid (33)], the IC50 was 3 µM.

The record behind these values is BindingDB's records for doi:10.3109/14756366.2013.782024 (NAS of Ukraine, 2014).
